# Laboratory results as given in US12582632B2, “Inhibition of neurological injuries due to infections via administration of Butanetap and analogs thereof” (priority 2021, dated 2026).
# Experiments:
# [1] = tested on: neurotoxic aggregating proteins; experiment: Translation of neurotoxic aggregating proteins in healthy mouse brain; type: in vivo
# Description: (§1) Therefore, the original data concerning the effects of butanetap working under all conditions is wrong. (See, e.g., Lahiri, et al., “The Experimental Alzheimer's Disease Drug butanetap [(+)-Phenserine] Lowers Amyloid-β Peptide Levels in Cell Culture and Mice”, J. Pharmacol. Ther. 320:386-396, 2007 (hereby incorporated by reference)). It only works in stressed cells, dividing cells and sick cells, e.g., those cells that have high levels of iron.
# [2] = tested on: neurotoxic aggregating proteins in stem cells (dividing cells); experiment: Neurotoxic aggregating proteins in stem cells and derived neurons; type: cell-based
# [3] = tested on: insoluble (aggregated) tau; experiment: Tau in vivo, hTau mice, ELISA; conditions: in mouse chow, 6 weeks; three of the 4 ELISA assays, FIG. 4
# Method: The cells were treated for 4 days with butanetap harvested, solubilized, and tested with antibodies against Tau and phospho-Tau. • B. FIG. 4, Tau in vivo. […] After 6 weeks, mice were killed and the total and insoluble (aggregated) tau was measured. […] Precipitated tau corresponds to tangles in the brain.
# [4] = tested on: APP/PS1 transgenic (tg) mouse model of AD; experiment: APP/PS1 transgenic mouse model of AD, memory, learning and synaptic transmission; type: in vivo
# Description: (§2) Butanetap's efficacy in treating neurodegeneration in animal models: Restored memory and learning in an APP/PS1 transgenic (tg) mouse model of AD; Restored memory and learning in a Ts65dn mouse model of Down syndrome (DS) [W. Mobley, UCSD, submitted 2020]; Preserved the retina in acute glaucoma [J Sundstrom; Hershey Medical School]; Restored colonic motility in a human SNCAA53T tg mouse model of PD (Kuo et. al., Am J Neurodegener Dis 2019; 8(1):1-15 www.AJND.us/ISSN:216 591X/AJND0086080: Translational inhibition of α-synuclein by Butanetap (Posiphen) normalizes distal colon motility in transgenic Parkinson mice); Preserved memory and learning in traumatic brain injury rats (M-F Chesselet, submitted 2020).
# (§3) Butanetap's reversal of the neurotoxic cascade: Butanetap's mechanism of action is related to APP, Tau, and aSYN expression being regulated by RP1 and by iron and the way these proteins contribute to neurodegeneration by accumulating as toxic aggregates that impair axonal transport and synaptic transmission, causing inflammation, and, finally, leading to nerve cell death (as described previously).
# [5] = tested on: fully differentiated Down syndrome nerve cells; experiment: Vesicle transport in Down syndrome nerve cells; type: cell-based
# Description: as §3
# [6] = tested on: immortalized neuroblastoma (SH-SY5Y) cells; experiment: Gingipain cytotoxicity on neuroblastoma cells, AlamarBlue viability; type: cell-based; conditions: 48 hours, between 1 and 10 nM
# Method: Immortalized Mouse Astrocytes—SV40T (IMA2.1), immortalized Mouse Microglia (SIM-A9) and immortalized neuroblastoma (SH-SY5Y) cells were infected for 48 hours with gingipains HRgpA and RgpB (arginine gingipains), and Kgp (lysine-specific cysteine proteinase—Lys-gingipain, KGP). After 48 hours the cells were assessed for viability with the AlamarBlue assay and the percentage of dead or alive cells versus control was plotted. […] As expected, since neither are dying, […]. […] Therefore, we expect the efficacious buntanetap dose to fight P. gingivalis infection to be the same as to treat Alzheimer's and Parkinson's disease has no impact on the microglia or neuroblastoma survival in the presence of gingipains.
# [7] = tested on: traumatic brain injury rats; experiment: Traumatic brain injury rats; type: in vivo, rat
# Description: as §2, §3
# [8] = Double Alzheimer/Parkinson phase 2 clinical trial; type: in vivo, human
# Description: Three Phase I clinical studies have established butanetap's safety. […] Therefore, we conclude that a much lower single daily butanetap dose would be effective in the proposed study.
# [9] = molecular target: APP or aSYN mRNA to IRP1 (Homo sapiens, UniProt P21399); experiment: Binding of mRNA IRE to IRP1
# Chain of APP or aSYN mRNA to IRP1 (P21399 whole entry): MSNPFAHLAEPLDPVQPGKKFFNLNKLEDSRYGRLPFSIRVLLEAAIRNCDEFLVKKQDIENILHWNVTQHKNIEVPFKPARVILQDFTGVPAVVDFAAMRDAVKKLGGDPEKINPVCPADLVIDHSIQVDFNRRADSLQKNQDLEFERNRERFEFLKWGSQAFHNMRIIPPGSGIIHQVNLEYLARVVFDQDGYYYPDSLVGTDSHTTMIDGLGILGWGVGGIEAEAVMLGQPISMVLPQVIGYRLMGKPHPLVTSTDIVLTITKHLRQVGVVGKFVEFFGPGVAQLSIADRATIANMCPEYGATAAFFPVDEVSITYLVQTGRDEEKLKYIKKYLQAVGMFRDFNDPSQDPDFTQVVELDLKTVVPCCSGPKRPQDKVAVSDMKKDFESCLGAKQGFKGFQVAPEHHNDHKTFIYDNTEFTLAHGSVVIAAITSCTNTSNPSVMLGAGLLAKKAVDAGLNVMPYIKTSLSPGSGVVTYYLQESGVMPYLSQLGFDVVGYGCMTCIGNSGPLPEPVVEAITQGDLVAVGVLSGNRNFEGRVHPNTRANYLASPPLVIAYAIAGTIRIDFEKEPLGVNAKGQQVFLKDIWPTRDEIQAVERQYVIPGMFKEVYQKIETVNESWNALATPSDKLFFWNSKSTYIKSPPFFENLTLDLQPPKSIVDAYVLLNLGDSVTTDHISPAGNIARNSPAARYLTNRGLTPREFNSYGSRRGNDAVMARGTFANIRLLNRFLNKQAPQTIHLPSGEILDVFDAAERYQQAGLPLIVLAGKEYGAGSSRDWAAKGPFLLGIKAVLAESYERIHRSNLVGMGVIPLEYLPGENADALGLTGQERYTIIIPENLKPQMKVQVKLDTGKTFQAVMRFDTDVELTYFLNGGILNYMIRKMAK
# Description: as §1
# Butanetap augments the binding of APP mRNA IRE to IRP1 under high iron conditions and prevents APP from being translated excessively, restoring homeostasis. The same mechanism works for all neurotoxic aggregating proteins tested to date: Butanetap works under iron-dishomeostasis to restore homeostasis.
# [10] = tested on: alpha-synuclein; experiment: alpha-synuclein in gut in vivo, PD A53T mice, Western blot
# Method: • A. FIG. 5, alpha-synuclein in vitro. […] On the left is a Western blot showing butanetap inhibition of aSYN in relation to Actin standard at concentrations of 0, 0.1, 1, 5 and 10 μM and on the right a graph showing the same data plotted for statistical analysis purposes. • B. FIG. 6, alpha-synuclein brain in vivo. […] The animals were only treated for 2 weeks, so in brain it takes butanetap only 2 weeks to lower levels of alpha-synuclein. • C. FIG. 7, alpha-synuclein in gut in vivo. Gut levels of aSYN following treatment of PD A53T mice with 10 mg/kg for 21 weeks and 21 days reduced αSYN levels in the gut as shown by Western Blot.
# [11] = tested on: APP and its fragments; experiment: APP and fragments in hippocampus of APP/PS1 transgenic AD mice; type: in vivo
# Description: GAPDH and Synaptophysin were loading controls. FIG. 2 also includes a collection of graphs showing relative density of APP plotted against control and time after butanetap treatment; relative density of CTFβ plotted against control and time after butanetap treatment; relative density of CTFα plotted against control and time after butanetap treatment; Aβ42 levels in brain tissue plotted against control and time after butanetap treatment; and Aβ40 levels in brain tissue plotted against control and time after butanetap treatment. Finally, FIG. 2 also includes a Western blot showing levels of APP, NSB, CTFβ, and CTFα after butanetap treatment over time (minutes).
# [12] = tested on: APP, Tau, αSYN and inflammatory markers in CSF; conditions: MCI subjects, cited from earlier work
# [13] = Efficacious concentration in tissue culture; type: cell-based
# [14] = tested on: rat acute glaucoma model; experiment: Acute glaucoma model; type: in vivo
# Description: as §2, §3
smiles,measurement,setting,value
"CN1CC[C@]2(C)c3cc(OC(=O)Nc4ccccc4)ccc3N(C)C12 (stereo partly drawn) [butanetap, (3aR)-1,3a,8-trimethyl-1,2,3,3a,8,8a-hexahydropyrrolo[2,3-b]indol-5-yl phenylcarbamate]",translation of neurotoxic aggregating proteins,[1],does not inhibit
same,neurotoxic aggregating proteins,[2]; differentiated neurons derived from the stem cells,not in the differentiated neurons
same,neurotoxic aggregating proteins,[2]; stem cells (dividing cells),inhibits
same,amount of insoluble tau,[3],significant reduction
same,memory and learning,[4]; APP/PS1 tg mice,Restored
same,impaired synaptic transmission,[4]; hippocampus of APP/PS1 tg mice,Normalized
same,anterograde and retrograde vesicle transport,[5],Normalized
same,neuroblastoma survival in the presence of gingipains,[6],no impact
same,inflammation,[7]; rat brain after TBI,lowered
same,impaired synaptic transmission,[7]; rat striatum after TBI,Normalized
same,nerve cells,[7]; rat substantia nigra after TBI,protected
same,memory and learning,[7]; traumatic brain injury rats,Preserved
same,axonal and synaptic function,[8]; AD and PD patients,improved
same,inflammatory markers,[8]; AD and PD patients,reduced
same,neurotoxic protein biomarkers,[8]; AD and PD patients,reduced
same,blood brain barrier crossing,"[8]; AD and PD patients, once daily",crossed the blood brain barrier
same,cognition as measured by ADAS-Cog11 and WAIS coding speed,"[8]; AD patients, 80 mg QD, significant versus baseline, not versus placebo",improved
same,"motor function as measured by MDS-UPDRS (Part II, III, IV and total)","[8]; PD patients, 5, 10, 20, 40, 80 mg QD, maximum improvement for 10 & 20 mg",improved at all doses
same,WAIS speed and accuracy,"[8]; PD patients, significant versus placebo at 5, 20 and 80 mg",improved
same,binding of APP mRNA IRE to IRP1,[9]; under high iron conditions,augments
same,binding of APP or aSYN mRNA to IRP1,[9]; under iron or metal-homeostasis,does not increase
same,reduction of alpha-synuclein levels in the gut,"[10]; 10 mg/kg for 21 weeks, p<0.05, FIG. 7",50.6%
same,significant reduction of alpha-synuclein levels in the gut,[10]; 10 mg/kg for 21 days,not at 21 days
same,APP and its fragments (all related peptides) in hippocampus,[11]; FIG. 2,reduced
same,duration of reduction of APP and related peptides after the last dose,[11]; hippocampus,at least 9 hours
same,"levels of APP, Tau, and αSYN in the cerebrospinal fluid (CSF)",[12]; 4×60 mg/day,normalized
same,CSF Aβ42,[12],trend to lower
same,CSF levels of p-tau,[12],significantly lowered
same,CSF levels of sAPPα,[12],significantly lowered
same,CSF levels of sAPPβ,[12],significantly lowered
same,CSF levels of specific inflammatory markers,[12],significantly lowered
same,CSF levels of t-tau,[12],significantly lowered
same,half-life in CSF,[12],> 12 h
same,dose found to be efficacious,[13],1 nM
same,retina,[14]; acute glaucoma,Preserved
same,nerve cells,[14]; rat acute glaucoma model,protected
